In ChEMBL document CHEMBL2086230, “Comparison of the cytotoxic effects of enantiopure PPAPs, including nemorosone and clusianone” (Bioorg Med Chem Lett, 2012):

How the values were obtained:
Format in all cases: functional, cell-based
MCF7 = test: Cytotoxicity against human MCF7 cells after 72 hrs by resazurin assay
MIA PaCa-2 = test: Cytotoxicity against human MIAPaCa2 cells after 72 hrs by resazurin assay
HeLa = test: Cytotoxicity against human HeLa cells after 72 hrs by resazurin assay

CC(C)=CCC1=C(O)[C@@]2(C(=O)c3ccccc3)C(=O)[C@](CC=C(C)C)(C[C@H](CC=C(C)C)C2(C)C)C1=O
IC50 (MCF7; Homo sapiens, MCF7, 72 h): 5.2 µM
IC50 (MIA PaCa-2; Homo sapiens, MIA PaCa-2, 72 h): 2.4 µM
IC50 (HeLa; Homo sapiens, HeLa, 72 h): 2.9 µM

CC(C)=CCC1=C(O)C2(CC=C(C)C)CC(CC=C(C)C)C(C)(C)C(C(=O)c3ccccc3)(C1=O)C2=O (single isomer, unassigned; (+))
IC50 (MCF7; Homo sapiens, MCF7, 72 h): 6.5 µM
IC50 (MIA PaCa-2; Homo sapiens, MIA PaCa-2, 72 h): 3.4 µM
IC50 (HeLa; Homo sapiens, HeLa, 72 h): 3.9 µM

CC(C)=CCC1=C(O)C2(C(=O)c3ccccc3)CC(CC=C(C)C)C(C)(C)C(CC=C(C)C)(C1=O)C2=O (single isomer, unassigned; (+))
IC50 (MCF7; Homo sapiens, MCF7, 72 h): 18.9 µM
IC50 (MIA PaCa-2; Homo sapiens, MIA PaCa-2, 72 h): 11.3 µM
IC50 (HeLa; Homo sapiens, HeLa, 72 h): 10.1 µM

CC(C)=CC[C@H]1C[C@]2(CC=C(C)C)C(=O)[C@@](CC=C(C)C)(C(=O)C(C(=O)c3ccccc3)=C2O)C1(C)C (stereo in doubt; (+)-4) [6-EPI-CLUSIANONE]
IC50 (MCF7; Homo sapiens, MCF7, 72 h): 8.3 µM
IC50 (MIA PaCa-2; Homo sapiens, MIA PaCa-2, 72 h): 5.2 µM
IC50 (HeLa; Homo sapiens, HeLa, 72 h): 5.8 µM

CC(C)=CCC1=C(O)C2(CC=C(C)C)CC(CC=C(C)C)C(C)(C)C(C(=O)c3ccccc3)(C1=O)C2=O (stereo in doubt; (-)-3)
IC50 (MCF7; mcf7): 8 µM
IC50 (MIA PaCa-2; mia paca-2): 3.5 µM
IC50 (HeLa; hela): 3.4 µM

CC(C)=CC[C@H]1C[C@]2(CC=C(C)C)C(=O)[C@@](CC=C(C)C)(C(=O)C(C(=O)c3ccccc3)=C2O)C1(C)C (stereo in doubt; (-)-4) [6-EPI-CLUSIANONE]
IC50 (MCF7; mcf7): 5.7 µM
IC50 (MIA PaCa-2; mia paca-2): 3.8 µM
IC50 (HeLa; hela): 3 µM

CC(C)=CCC1=C(O)C2(C(=O)c3ccccc3)CC(CC=C(C)C)C(C)(C)C(CC=C(C)C)(C1=O)C2=O (stereo in doubt; (-)-5)
IC50 (MCF7; mcf7): 10.9 µM
IC50 (MIA PaCa-2; mia paca-2): 8.6 µM
IC50 (HeLa; hela): 10.9 µM

Nc1ccn([C@@H]2O[C@H](CO)[C@@H](O)C2(F)F)c(=O)n1 [GEMCITABINE]
IC50 (MCF7; Homo sapiens, MCF7, 72 h): 0.06 µM
IC50 (MIA PaCa-2; Homo sapiens, MIA PaCa-2, 72 h): 0.06 µM
IC50 (HeLa; Homo sapiens, HeLa, 72 h): 0.05 µM
